Experimental data taken from publication PMC4301837, “Aldosterone synthase inhibition: cardiorenal protection in animal disease models and translation of hormonal effects to human subjects” (Journal of Translational Medicine, 2014).
Where two headings read alike, the source gives them in different places. Marks after values point to notes of the source that are not given here.

Experiments:
[1] = tested on: ACTH-stimulated plasma aldosterone and cortisol
Description: Male cynomolgus monkeys (Macaca fascicularis) were selected for their cooperation and ability to sit comfortably in chairs and were conditioned to remain in the chairs for extended periods before the studies began. On the day of the experiment, monkeys were removed from their home cages with a pole/collar device (Primate Products, Inc., Woodside, CA, USA), secured in their restraining chairs, and transported to the quiet study room. The monkeys remained in the chair for the duration of the experiment (up to 10 h), during which time an enrichment and feeding regimen was followed.
Six monkeys (4.9–8.8 kg) were selected and were divided into two groups of three animals. Experiments were not initiated until after at least 2 weeks of recovery from the catheter/vascular access port (VAP) surgeries. Thirty minutes before the start of the experiment, a Huber needle was inserted transdermally into the VAP for the collection of blood samples and injection of ACTH. Between samplings, catheters/VAPs were flushed with saline and kept patent with 10 U/mL heparin.
Blood samples (0.3 mL in 15 U/mL heparin) for baseline pharmacokinetic and pharmacodynamic assessments were collected at 0.5 h, 0.25 h and immediately before dosing. […] Blood samples were collected at 0.125, 0.25, 0.5, 0.75 and 1 h after ACTH injection to assess the time course of plasma aldosterone and cortisol stimulation. […] Between the 8 h and 23.5 h collections, the Huber needles were removed and the monkeys were returned to their home cages. All instrumentation was removed after the last sample at 24 h.
Data and statistical analyses were conducted with Microsoft Excel (Version 2007, Microsoft, Redmond, WA, USA). All differences were considered statistically significant at a two-sided P value ≤ 0.05.
(§1) Blood samples were centrifuged at 20,000g for 20 min at 4°C to separate out plasma, which was aliquoted and frozen at −70°C until required for analysis. Plasma aldosterone and cortisol concentrations from animal studies were measured using commercially available solid-phase ^125I radioimmunoassay kits (Coat-A-Count Aldosterone TKAL1; Coat-A-Count Cortisol TKCO1; Siemens Healthcare Diagnostic Products).

[2] = tested on: dTG rats with pre-established cardiorenal disease; experiment: Survival study in older, enalapril-pre-treated dTG rats with established cardiorenal disease; type: in vivo, rat; details: older dTG rats
Protocol: In order to study the effects of aldosterone inhibition on survival in older dTG rats with established cardiorenal disease, we modified the model by treating male dTG rats during their developmental stage (3–8 weeks of age) with the angiotensin-converting enzyme (ACE) inhibitor enalapril.
In experiments with older dTG rats (treated with enalapril for 5 weeks), urine collections and echocardiographic examinations were conducted as above but systolic arterial pressure was estimated in conscious rats by tail plethysmography (Model# 56-1, IITC Life Science Inc., Woodland Hills, CA, USA) using appropriate tail cuff sensors (B63), and restrainer (size 80), at a constant chamber temperature of 30°C.
In the survival studies, dTG rats were euthanized if they became moribund. Moribundity was defined as a decrease in body weight of ≥ 20% from “baseline” or two consecutive days of observable hematuria. The study endpoint was the age of the animal at death or at moribundity requiring euthanization.

healthy male volunteers = experiment: Human pharmacodynamics, multiple-dose phase; details: for Plasma potassium, Δ Day2 vs baseline (Day −1) / Plasma potassium, Δ Day7 vs baseline (Day −1) / Plasma potassium, Δ Day14 vs Day 7 / Plasma sodium, Δ Day2 vs baseline (Day −1) / Plasma sodium, Δ Day7 vs baseline (Day −1) / Plasma sodium, Δ Day14 vs Day 7 / Urinary potassium, Δ Day 1 vs baseline (Day −1) / Urinary potassium, Δ Day 7 vs baseline (Day −1) / Urinary potassium, Δ Day 14 vs Day 7 / Urinary sodium, Δ Day 1 vs baseline (Day −1) / Urinary sodium, Δ Day 7 vs baseline (Day −1) / Urinary sodium, Δ Day 14 vs Day 7: ANCOVA mean
[3] = tested on: Ang II-stimulated aldosterone release; parameters: method as in D. Rigel, personal communication; details: dogs; ref D. Rigel, personal communication; read-out: EC50, inhibition of Ang II-stimulated aldosterone release; cited from earlier work
in vitro = details: rat, plasma
[4] = tested on: patients with primary aldosteronism; details: 14 patients, 0.5 mg and 1 mg twice daily, 4 weeks; cited from earlier work
[5] = tested on: ACTH-stimulated aldosterone, cortisol and precursors; experiment: Human ACTH (cortisol) stimulation test, multiple-dose phase; type: in vivo
Protocol: (§2) The multiple-dose phase involved four cohorts, each of 18 subjects. […] Subjects were placed on a controlled sodium restricted diet from the day before dosing until 72 h post-dose and were housed at the study center for this period. Until Day 7, the diet was ~50–60 mEq Na^+/~50–60 mEq K^+. On the morning of Day 8, potassium in the diet was increased to ~100 mEq. Based on urinary electrolyte values obtained from placebo subjects on Day 7 and Day 14 respectively, the actual diet was ~95 ± 63 mEq Na^+/46 ± 12 mEq K^+ for the first week and ~86 ± 42 mEq Na^+/69 ± 25 mEq K^+ for the second week.
Pharmacodynamic assessments included the measurement of aldosterone, plasma renin activity (PRA), cortisol and 11-deoxycortisol during both phases of the study. In addition, ACTH and 11-DOC were measured during the multiple-dose phase. During the single-dose phase, blood samples for pharmacodynamic assessments were collected pre-dose and at 1, 2, 4, 8, 12 and 24 h post-dose. During the multiple-dose phase, samples were collected pre-dose and at 1, 2, 4, 8 and 12 h post-dose on Days −1 (baseline), 1, 7, 8 and 14, as well as pre-dose on Days 2 and 9, and at 24, 48 and 72 h after the final dose (i.e., on Days 15, 16 and 17). In addition, subjects underwent a cortisol stimulation test on Days –2, 6 and 13; An ACTH analog was injected 2 h post-dose and blood samples were collected prior to, and at 30 and 60 min after, the ACTH injection. Aldosterone and PRA levels were measured by radioimmunoassay and cortisol and 11-deoxycortisol levels by LC-MS/MS (see Additional file 1).
All subjects with evaluable pharmacodynamic measurements were included in the analysis, and data from the two study phases were analyzed separately. An analysis of covariance (ANCOVA) with treatment as factor and baseline value as covariate was performed to evaluate changes from baseline in pharmacodynamic parameters at each time point.
Aldosterone levels were measured by radioimmunoasssay with 100 μl of EDTA plasma or 500 μl of urine using the DSL-8600 ACTIVE® Aldosterone Coated-Tube radioimmunoassay kit from Diagnostic Systems Laboratories, Inc. (LLOQ was 69 pmol/l [25.0 pg/ml] for plasma and 2 nmol/l [0.75 ng/ml] for urine).
Cortisol, 11-deoxycortisol and 11-deoxycorticosterone levels were measured by LC/MS/MS of 250 μL of EDTA plasma or 500 μL urine (LLOQ was 13.79 nmol/L [5.00 ng/mL] for cortisol and 2.89 nmol/L [1.00 ng/mL] for 11-deoxycortisol and 11-deoxycorticosterone in plasma and 2.76 nmol/L [1.00 ng/mL] for cortisol in urine). For plasma cortisol, based on 9 standards ranging from 5–300ng/ml (>70 replicates of each) run at the time of sample analysis, the coefficient of variation (CV) and were 2.14–5.32% and 97.6–104%, respectively. For urine cortisol, based on 7 standards ranging from 1–100ng/ml (22 replicates of each) run at the time of sample analysis, CV and accuracy were 1.55–4.22% and 97.0–101.6%, respectively. For plasma 11-deoxycortisol, based on 9 standards ranging from 1–300ng/ml (>50 replicates of each) run at the time of sample analysis, CV and accuracy were 3.69–8.22% and 91.33–108%, respectively. For 11-deoxycorticosterone, based on 8 standards ranging from 0.05–1 ng/ml (19–20 replicates of each) run during assay validation, CV of the plasma assay was 2.38–8.71% and bias was -2.4–4.0%.

[6] = tested on: patients with essential hypertension; details: cited from earlier work
clinical = details: male, human, plasma; for half-life: t½
Protocol: Healthy male volunteers, 18–45 years of age and with a body mass index of 18–28 kg/m^2 were eligible for this study. Subjects had to be non-smokers with normal hepatic and renal function for inclusion. […] All subjects provided informed written consent before participating in any study procedures. The study was conducted at two centers in the Netherlands and one in Germany and was approved by the Independent Ethics Committee and/or Institutional Review Board for each study center (Stichting Beoordeling Ethiek Biomedisch Onderzoek, Assen, Netherlands; Ethics Committee of the Land, Berlin, Germany) and was conducted in accordance with Good Clinical Practice and the ethical principles of the Declaration of Helsinki.
This was a randomized, double-blind, placebo-controlled, interwoven single- and multiple-ascending-dose study. In the single-dose phase, five cohorts of eight subjects each were enrolled. […] Assessments were made throughout the treatment period, and at an end of study assessment 7 days post-dose.
as §2
Blood samples for pharmacokinetic assessment were obtained pre-dose and at regular intervals up to 72 h post-dose in the single-dose phase of the study. In the multiple-dose phase, blood samples were taken on Day 1 and Day 14 at regular intervals up to 36 and 72 h post-dose, respectively, and pre-dose on Days 3, 4, 7 and 11. Blood samples (2 or 4 mL) were collected into an EDTA containing tube, plasma extracted and samples frozen at –70°C until analysis.
All subjects with quantifiable pharmacokinetic measurements were included in the pharmacokinetic data analysis. Pharmacokinetic parameters were analyzed separately for the single- and multiple-dose phases and were determined using non-compartmental analyses.

ACTH-stimulated cortisol = details: rhesus monkeys, cited from earlier work
[7] = tested on: Ang-II-stimulated aldosterone synthesis; details: rat, Ang II stimulation
Protocol: Male S-D rats (~500 g) were purchased from Taconic Farms (Germantown, NY, USA) and acclimatized in the Novartis vivarium (12 h light/dark cycle; 72°F; 55% relative humidity) for at least 7 days before being used in experiments. Rats were provided normal chow (Harlan Teklad 8604) and water ad libitum except for a partial fast before and during an experiment.
Study protocols for the rat models of Ang-II- and ACTH-stimulated aldosterone synthesis followed a published protocol [21]. For the Ang-II-infusion model, an initial loading dose of 300 ng/kg angiotensin II (Ang II) was followed by 100 ng/kg/min intravenous (i.v.) infusion for 9 h. […] After 1 h of Ang II or ACTH infusion, a blood sample was collected for determining the post-Ang II or ACTH ‘baseline’ (i.e., secretagogue-elevated) plasma aldosterone and corticosterone concentrations. […] In both models, infusion continued for a further 8 h.
as §1

[8] = LCI699 0.5 mg, Day 1, mean ± SEM
[9] = 524 patients, 0.25 to 1 mg, 8 weeks
[10] = oral, single-dose phase, doses up to 200 mg

Structure (SMILES): N#Cc1ccc([C@H]2CCc3cncn32)c(F)c1 [LCI699]
- maximal inhibition of aldosterone production at the upper dose ([1]; Ang-II- and ACTH-stimulation models in rats and monkeys): 80–90%
- decrease in ACTH-stimulated plasma aldosterone response compared with vehicle control ([1]; monkey, 150 μg/kg oral, 3 h prior to ACTH): ~90%
- inhibition of ACTH-stimulated cortisol synthesis ([1]; monkey, 5–150 μg/kg oral): No significant inhibition
- recovery of plasma aldosterone levels ([1]; monkey, 5–150 μg/kg oral): returned to baseline 24 h after dosing
- prolongation of median survival ([2]; 30 mg/kg/day in drinking water from 24 weeks of age, P = 0.07): 23 weeks
- treated rats that died suddenly ([2]; LCI699 30 mg/kg/day, n = 7): two of the seven
- Plasma potassium, Δ Day2 vs baseline (Day −1) (healthy male volunteers; LCI699 0.5 mg once daily): +0.20 mEq/L
- Plasma potassium, Δ Day7 vs baseline (Day −1) (healthy male volunteers; LCI699 0.5 mg once daily): +0.25^‡ mEq/L
- Plasma potassium, Δ Day14 vs Day 7 (healthy male volunteers; LCI699 0.5 mg once daily): +0.05 mEq/L
- Plasma sodium, Δ Day2 vs baseline (Day −1) (healthy male volunteers; LCI699 0.5 mg once daily): +0.23 mEq/L
- Plasma sodium, Δ Day7 vs baseline (Day −1) (healthy male volunteers; LCI699 0.5 mg once daily): −1.71^‡ mEq/L
- Plasma sodium, Δ Day14 vs Day 7 (healthy male volunteers; LCI699 0.5 mg once daily): +0.41 mEq/L
- Urinary potassium, Δ Day 1 vs baseline (Day −1) (healthy male volunteers; LCI699 0.5 mg once daily): +9.2 mEq/24 h
- Urinary potassium, Δ Day 7 vs baseline (Day −1) (healthy male volunteers; LCI699 0.5 mg once daily): +12.8 mEq/24 h
- Urinary potassium, Δ Day 14 vs Day 7 (healthy male volunteers; LCI699 0.5 mg once daily): +20.2 mEq/24 h
- Urinary sodium, Δ Day 1 vs baseline (Day −1) (healthy male volunteers; LCI699 0.5 mg once daily): +45.2^† mEq/24 h
- Urinary sodium, Δ Day 7 vs baseline (Day −1) (healthy male volunteers; LCI699 0.5 mg once daily): +3.6 mEq/24 h
- Urinary sodium, Δ Day 14 vs Day 7 (healthy male volunteers; LCI699 0.5 mg once daily): −25.5 mEq/24 h
- change in 24 h urinary aldosterone levels from baseline (healthy male volunteers; LCI699 0.5 mg, Day 1): –39%
- reduction of 24 h urinary aldosterone (healthy male volunteers; [8]): 39 ± 6%
- reduction of plasma aldosterone (healthy male volunteers; [8]): 49 ± 3%
- change in pre-dose plasma ACTH from baseline (healthy male volunteers; LCI699 0.5 mg, Day 6): −14.5%
- increase in PRA from baseline (healthy male volunteers; LCI699 0.5 mg, Day 7): 106%
- increase in PRA compared with baseline (healthy male volunteers; LCI699 0.5 mg, Day 14): 130%
- Mean pre-dose plasma aldosterone levels (healthy male volunteers; LCI699 1 mg and 3 mg once daily, Day 14): 209 to 293 pg/mL
- Plasma potassium, Δ Day2 vs baseline (Day −1) (healthy male volunteers; LCI699 1 mg once daily): +0.08 mEq/L
- Plasma potassium, Δ Day7 vs baseline (Day −1) (healthy male volunteers; LCI699 1 mg once daily): +0.12* mEq/L
- Plasma potassium, Δ Day14 vs Day 7 (healthy male volunteers; LCI699 1 mg once daily): −0.06 mEq/L
- Plasma sodium, Δ Day2 vs baseline (Day −1) (healthy male volunteers; LCI699 1 mg once daily): −0.59 mEq/L
- Plasma sodium, Δ Day7 vs baseline (Day −1) (healthy male volunteers; LCI699 1 mg once daily): −0.11 mEq/L
- Plasma sodium, Δ Day14 vs Day 7 (healthy male volunteers; LCI699 1 mg once daily): −0.01 mEq/L
- Urinary potassium, Δ Day 1 vs baseline (Day −1) (healthy male volunteers; LCI699 1 mg once daily): +9.7 mEq/24 h
- Urinary potassium, Δ Day 7 vs baseline (Day −1) (healthy male volunteers; LCI699 1 mg once daily): +17.4* mEq/24 h
- Urinary potassium, Δ Day 14 vs Day 7 (healthy male volunteers; LCI699 1 mg once daily): +4.2 mEq/24 h
- Urinary sodium, Δ Day 1 vs baseline (Day −1) (healthy male volunteers; LCI699 1 mg once daily): +76.3^‡ mEq/24 h
- Urinary sodium, Δ Day 7 vs baseline (Day −1) (healthy male volunteers; LCI699 1 mg once daily): +44.0 mEq/24 h
- Urinary sodium, Δ Day 14 vs Day 7 (healthy male volunteers; LCI699 1 mg once daily): −3.6 mEq/24 h
- change in 24 h urinary aldosterone levels from baseline (healthy male volunteers; LCI699 1 mg, Day 1): –39%
- change in pre-dose plasma ACTH from baseline (healthy male volunteers; LCI699 1 mg, Day 6): −31.4%
- change in 24 h urinary aldosterone levels from baseline (healthy male volunteers; LCI699 1 mg, Day 7): −12%
- increase in PRA from baseline (healthy male volunteers; LCI699 1 mg, Day 7): 277%
- increase in PRA compared with baseline (healthy male volunteers; LCI699 1 mg, Day 14): 327%
- Plasma sodium, Δ Day2 vs baseline (Day −1) (healthy male volunteers; LCI699 3 mg once daily): −0.73* mEq/L
- Plasma sodium, Δ Day7 vs baseline (Day −1) (healthy male volunteers; LCI699 3 mg once daily): −2.87^‡ mEq/L
- Plasma sodium, Δ Day14 vs Day 7 (healthy male volunteers; LCI699 3 mg once daily): −0.45 mEq/L
- Urinary potassium, Δ Day 1 vs baseline (Day −1) (healthy male volunteers; LCI699 3 mg once daily): +2.9 mEq/24 h
- Urinary potassium, Δ Day 7 vs baseline (Day −1) (healthy male volunteers; LCI699 3 mg once daily): +12.2 mEq/24 h
- Urinary sodium, Δ Day 1 vs baseline (Day −1) (healthy male volunteers; LCI699 3 mg once daily): +64.0^‡ mEq/24 h
- Urinary sodium, Δ Day 7 vs baseline (Day −1) (healthy male volunteers; LCI699 3 mg once daily): +22.2 mEq/24 h
- Urinary sodium, Δ Day 14 vs Day 7 (healthy male volunteers; LCI699 3 mg once daily): −17.2 mEq/24 h
- change in 24 h urinary aldosterone levels from baseline (healthy male volunteers; LCI699 3 mg, Day 1): –66%
- change in pre-dose plasma ACTH from baseline (healthy male volunteers; LCI699 3 mg, Day 6): −15.6%
- change in 24 h urinary aldosterone levels from baseline (healthy male volunteers; LCI699 3 mg, Day 7): −44%
- increase in PRA from baseline (healthy male volunteers; LCI699 3 mg, Day 7): 377%
- increase in trough 11-DOC levels from baseline (healthy male volunteers; LCI699 3 mg, Day 7): 228%
- increase in PRA compared with baseline (healthy male volunteers; LCI699 3 mg, Day 14): 238%
- increase in pre-dose ACTH levels compared with baseline (healthy male volunteers; LCI699 10 mg): 193%
- increase in pre-dose plasma 11-deoxycortisol from baseline (healthy male volunteers; LCI699 10 mg, Day 6): 508%
- reduction in 24 h urinary cortisol (healthy male volunteers; LCI699 10 mg, Day 7, one subject (second subject no change)): > 70%
- plasma aldosterone following the 10 mg dose (healthy male volunteers; LCI699 10 mg, data not shown): No further reduction
- change in trough 11-DOC levels (healthy male volunteers; LCI699 0.5 or 1 mg, Day 7): no change
- effect on plasma or 24 h urinary cortisol (healthy male volunteers; LCI699 0.5–3 mg, Day 1, 7 or 14): no significant effect
- EC50 [3]: 41 nM
- fraction unbound (in vitro): 0.641
- effect on plasma and urinary aldosterone levels [4]: effectively reduced
- mean decrease in ambulatory systolic blood pressure [4]: 4 mmHg
- peak reduction of ACTH-stimulated cortisol levels from baseline ([5]; LCI699 0.5 mg, Day 6): 1.8%
- effect on ACTH-stimulated 11-DOC levels ([5]; LCI699 0.5 mg, eplerenone 100 mg): no significant effect
- maximal increase in ACTH-stimulated 11-DOC from baseline ([5]; LCI699 1 mg, Day 6): 95%
- peak reduction of ACTH-stimulated cortisol levels from baseline ([5]; LCI699 1 mg, Day 6): 11%
- effect on ACTH-stimulated cortisol response ([5]; LCI699 1 mg, Day 13): attenuation of the ACTH-stimulated cortisol response
- maximal increase in ACTH-stimulated 11-DOC from baseline ([5]; LCI699 3 mg, Day 6): 407%
- peak increase in ACTH-stimulated 11-deoxycortisol from baseline ([5]; LCI699 3 mg, Day 6): 82%
- peak reduction of ACTH-stimulated cortisol levels from baseline ([5]; LCI699 3 mg, Day 6): 22%
- increase in ACTH-stimulated 11-DOC levels ([5]; LCI699 3 mg, Day 13): 168%
- peak increase in ACTH-stimulated 11-deoxycortisol from baseline ([5]; LCI699 3 mg, Day 13): 114%
- time to complete reversal of cortisol suppression after discontinuing ([5]; LCI699 10 mg): 4 to 9 days
- effect on ACTH-stimulated cortisol ([5]; LCI699 10 mg, Days 6 and 10): further suppressed
- peak inhibition of ACTH-stimulated aldosterone levels from baseline (Day −2) ([5]; LCI699 0.5–3 mg, Day 6): 41–64%
- effect on cortisol precursors (ACTH-stimulated) ([5]; eplerenone 100 mg and lower doses of LCI699 (0.5, 1 mg), Day 6 or Day 13): no significant effect
- hypertensive patients with attenuated ACTH-stimulated cortisol response ([6]; 1 mg once daily): approximately 20%
- placebo-corrected reduction in ambulatory diastolic blood pressure [6, 9]: 3–6 mmHg
- placebo-corrected reduction in ambulatory systolic blood pressure [6, 9]: 6–9 mmHg
- subjects with suppressed ACTH-stimulated cortisol release ([6]; total daily dose of 1 mg): approximately 20%
- Tmax (clinical; [10]): ~1 h
- half-life (clinical; oral, after both single and multiple doses): ~4 h
- half-life (clinical; [10]): ~4 h
- Tmax (clinical; po, 0.5–3 mg once daily oral): ~1 h
- effect on ACTH-stimulated cortisol (ACTH-stimulated cortisol; 3 mg/kg i.v.): reduced ACTH-stimulated cortisol
- effect on ACTH-stimulated cortisol (ACTH-stimulated cortisol; i.v. 0.003–1 mg/kg): no effect
- dose above which inhibition of stimulated plasma aldosterone shows an apparent plateau ([7]; oral): above 1 mg/kg
- Maximal reduction in plasma aldosterone from baseline ([7]; approximately 2 h after oral dosing): 80%
